Among the data in patent US9676714B2, “Sulfonylindole derivatives and method for preparing the same” (Daewoong Pharmaceutical Co., Ltd., priority 2013, dated 2017) are IC50 values, retold here.

Usually pIC50 stands for the negative decadic logarithm of the IC50, by convention in mol/L. High values mean a low IC50, low ones a high IC50.

pIC50: −log10 of the molar value. Where a name gives a salt, the structure may show the parent alone.

T1 sequence (P19156 whole entry): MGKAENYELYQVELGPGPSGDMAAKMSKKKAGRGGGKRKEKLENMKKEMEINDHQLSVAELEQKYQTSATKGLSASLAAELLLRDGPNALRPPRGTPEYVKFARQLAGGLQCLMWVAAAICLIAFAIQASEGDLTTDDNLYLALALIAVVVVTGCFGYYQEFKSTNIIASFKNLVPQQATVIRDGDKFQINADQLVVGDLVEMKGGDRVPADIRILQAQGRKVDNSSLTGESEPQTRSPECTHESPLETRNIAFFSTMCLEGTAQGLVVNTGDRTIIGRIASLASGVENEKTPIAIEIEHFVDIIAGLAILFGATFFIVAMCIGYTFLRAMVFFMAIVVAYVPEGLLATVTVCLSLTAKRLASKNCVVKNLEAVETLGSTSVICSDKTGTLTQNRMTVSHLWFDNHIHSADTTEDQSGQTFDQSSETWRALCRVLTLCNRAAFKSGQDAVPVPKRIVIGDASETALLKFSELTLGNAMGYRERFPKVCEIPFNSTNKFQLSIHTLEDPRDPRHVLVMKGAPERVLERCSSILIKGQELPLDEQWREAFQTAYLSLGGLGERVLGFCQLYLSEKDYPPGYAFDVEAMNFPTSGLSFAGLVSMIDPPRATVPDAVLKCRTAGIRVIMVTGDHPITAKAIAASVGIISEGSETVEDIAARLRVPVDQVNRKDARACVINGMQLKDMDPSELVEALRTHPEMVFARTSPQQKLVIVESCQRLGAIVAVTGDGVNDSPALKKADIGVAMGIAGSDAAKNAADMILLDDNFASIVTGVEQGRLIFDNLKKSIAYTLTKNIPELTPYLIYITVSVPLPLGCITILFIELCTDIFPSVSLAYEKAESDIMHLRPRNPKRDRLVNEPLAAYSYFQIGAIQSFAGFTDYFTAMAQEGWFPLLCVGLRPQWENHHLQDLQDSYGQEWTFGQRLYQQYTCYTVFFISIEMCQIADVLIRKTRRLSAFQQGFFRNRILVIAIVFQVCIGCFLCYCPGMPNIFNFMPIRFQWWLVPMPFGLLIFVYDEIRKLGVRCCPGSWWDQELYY
T1 sequence (P18434 whole entry partner): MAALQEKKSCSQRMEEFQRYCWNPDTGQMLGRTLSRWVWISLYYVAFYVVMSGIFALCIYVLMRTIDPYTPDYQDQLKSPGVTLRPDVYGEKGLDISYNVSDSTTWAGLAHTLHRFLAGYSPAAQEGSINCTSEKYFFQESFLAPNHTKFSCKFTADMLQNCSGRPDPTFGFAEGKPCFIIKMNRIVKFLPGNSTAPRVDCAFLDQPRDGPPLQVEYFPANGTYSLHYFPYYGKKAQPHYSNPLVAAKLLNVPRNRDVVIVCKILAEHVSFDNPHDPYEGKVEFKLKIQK

The experiment addresses T1, proton pump (H+/K+-ATPase) (Sus scrofa, UniProt P19156).
T1 construct: Gastric vesicles were prepared from hog stomach via centrifugal separation; from tissue; host or cells: hog stomach (gastric vesicles, method of Rabon et al. 1988)
In words: Measurement of inhibitory effects on proton pump (H+/K+-ATPase) activities. Type of experiment: biochemical. Conditions: hog gastric vesicles, K+-specific H+/K+-ATPase activity, Tris-HCl buffer pH 7.4, 37° C. for 40 minutes, malachite green Pi readout. Put shortly:
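Hog gastric vesicles in 60 mmol/l Tris-HCl pH 7.4 with 0.5% DMSO were treated with compounds at room temperature; reaction was started with 10 μl of 10 mmol/l ATP stock. Released Pi was read at 570 nm, K+-specific activity taken as the ±K+ difference. IC50 from 4-parameter logistic fit.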
As for `CNCc1cn(S(=O)(=O)c2cccc(C(F)(F)F)c2)c2cc(Cc3ccc(OC)nc3Cl)ccc12` [Example 294, 1-(6-((2-chloro-6-methoxypyridin-3-yl)methyl)-1-((3-(trifluoromethyl)phenyl)sulfonyl)-1H-indol-3-yl)-N-methylmethanamine hydrochloride], the pIC50 is 6.20.

For the compound `CNCc1cn(S(=O)(=O)c2cccc(OC)c2)c2cc(Cc3ccc(OC)nc3Cl)ccc12` [Example 295, 1-(6-((2-chloro-6-methoxypyridin-3-yl)methyl)-1-((3-methoxyphenyl)sulfonyl)-1H-indol-3-yl)-N-methylmethanamine], the negative logarithm of the IC50 (pIC50) was 6.04.

Compound `CNCc1cn(S(=O)(=O)c2cccc(OC(F)F)c2)c2cc(Cc3ccc(OC)nc3Cl)ccc12` [Example 296, 1-(6-((2-chloro-6-methoxypyridin-3-yl)methyl)-1-((3-(difluoromethoxy)phenyl)sulfonyl)-1H-indol-3-yl)-N-methylmethanamine] showed a negative-log IC50 (pIC50) of 6.03.

Compound `CNCc1cn(S(=O)(=O)c2cccc(OC(F)(F)F)c2)c2cc(Cc3ccc(OC)nc3Cl)ccc12` [Example 297, 1-(6-((2-chloro-6-methoxypyridin-3-yl)methyl)-1-((3-(trifluoromethoxy)phenyl)sulfonyl)-1H-indol-3-yl)-N-methylmethanamine] showed a negative logarithm of the IC50 (pIC50) of 5.92.

Regarding `CNCc1cn(S(=O)(=O)c2ccc(OC(F)F)cc2)c2cc(Cc3ccc(OC)nc3Cl)ccc12` [Example 298, 1-(6-((2-chloro-6-methoxypyridin-3-yl)methyl)-1-((4-(difluoromethoxy)phenyl)sulfonyl)-1H-indol-3-yl)-N-methylmethanamine], the pIC50 is 5.44.

Consider `CNCc1cn(S(=O)(=O)c2cccc(F)c2)c2cc(Cc3ccc(C)cc3Cl)ccc12` [Example 299, 1-(6-(2-chloro-4-methylbenzyl)-1-((3-fluorophenyl)sulfonyl)-1H-indol-3-yl)-N-methylmethanamine], for which the pIC50 is 6.57.

Compound `CNCc1cn(S(=O)(=O)c2ccccc2F)c2cc(Cc3ccc(C)cc3Cl)ccc12` [Example 300, 1-(6-(2-chloro-4-methylbenzyl)-1-((2-fluorophenyl)sulfonyl)-1H-indol-3-yl)-N-methylmethanamine] gave a negative-log IC50 (pIC50) of 5.82.

`CNCc1cn(S(=O)(=O)c2cccc(Cl)c2)c2cc(Cc3ccc(C)cc3Cl)ccc12` [Example 301, 1-(6-(2-chloro-4-methylbenzyl)-1-((3-chlorophenyl)sulfonyl)-1H-indol-3-yl)-N-methylmethanamine] had a negative logarithm of the IC50 (pIC50) of 6.10.

In the case of `CNCc1cn(S(=O)(=O)c2cccc(C(F)(F)F)c2)c2cc(Cc3ccc(C)cc3Cl)ccc12` [Example 302, 1-(6-(2-chloro-4-methylbenzyl)-1-((3-(trifluoromethyl)phenyl)sulfonyl)-1H-indol-3-yl)-N-methylmethanamine], the pIC50 was 6.49.

In the case of `CNCc1cn(S(=O)(=O)c2cccc(OC)c2)c2cc(Cc3ccc(C)cc3Cl)ccc12` [Example 303, 1-(6-(2-chloro-4-methylbenzyl)-1-((3-methoxyphenyl)sulfonyl)-1H-indol-3-yl)-N-methylmethanamine], the negative-log IC50 (pIC50) was 6.33.

`CNCc1cn(S(=O)(=O)c2cccc(OC(F)F)c2)c2cc(Cc3ccc(C)cc3Cl)ccc12` [Example 304, 1-(6-(2-chloro-4-methylbenzyl)-1-((3-(difluoromethoxy)phenyl)sulfonyl)-1H-indol-3-yl)-N-methylmethanamine] gave a negative-log IC50 (pIC50) of 6.22.

On to `CNCc1cn(S(=O)(=O)c2cccc(OC(F)(F)F)c2)c2cc(Cc3ccc(C)cc3Cl)ccc12` [Example 305, 1-(6-(2-chloro-4-methylbenzyl)-1-((3-(trifluoromethoxy)phenyl)sulfonyl)-1H-indol-3-yl)-N-methylmethanamine], for which the negative logarithm of the IC50 (pIC50) is 6.21.

In turn, `CNCc1cn(S(=O)(=O)c2ccc(F)cc2)c2cc(Cc3ccc(C)cc3Cl)ccc12` [Example 306] had a negative logarithm of the IC50 (pIC50) of 6.17.
